Data taken from patent US20090239836A1, “Multifunctional Ophthalmic Compositions” (priority 2008, published 2009).

Test: Solubility of compound having Formula V in various media
Assay type: physicochemical
Source text: For example, the solubility of the compound having Formula V in some embodiments of the present composition is compared to that in water in Table 1.

solubility (Medium: Water, pH 7): 0.2 µg/mL
solubility (aqueous with cosolvent or surfactant or cyclodextrin, Medium: 1% Polysorbate 80): 12 µg/mL
solubility (aqueous with cosolvent or surfactant or cyclodextrin, Medium: 10% PEG-400/1% polysorbate 80 (a composition of the present invention)): 12 µg/mL
solubility (aqueous with cosolvent or surfactant or cyclodextrin, Medium: 25% PEG-40/1% polysorbate 80 (a composition of the present invention)): 18 µg/mL
solubility (organic solvent or mixture, Medium: PEG-400): 5.6 µg/mL
SMILES: Cc1ccc2c(NCC(O)(CC(C)(C)c3cc(F)cc4c3OCC4)C(F)(F)F)cccc2n1 (centres unmarked) [Compound Having Formula V]
